# Measurements taken from patent US12599585B2, “Use of [(1R)-1-(2-chlorophenyl)-2-(tetrazol-2-yl)ethyl] carbamate in combination therapy” (priority 2018, dated 2026).
# Tests used:
# [1] = population pharmacokinetic (PopPK) modeling and simulation of the cenobamate effect on concomitant AED concentrations in subjects with partial onset seizures; format: in vivo, human; conditions: cenobamate dose 100-400 mg/day
# Procedure: This study was carried out to make an assessment of the extent to which the adjunctive treatment with cenobamate may affect the recommended dosing of other AEDs. Population pharmacokinetics (PopPK) models describing how cenobamate exposure affects that of other commonly used AEDs (i.e., carbamazepine, lamotrigine, levetiracetam, oxcarbazepine, phenytoin and valproic acid) when given as adjunct therapy.
# Therapeutically effective amount for AEDs are different depending on the condition of subjects participated in the study. For carbamazepine, therapeutically effective amount was about 800 mg/day to about 1,200 mg/day for adults and children over 12 years of age. For lamotrigine, therapeutically effective amount was about 100 mg/day to about 500 mg/day, preferably about 100 mg/day to 200 mg/day, for adults and children over 12 years of age. For levetiracetam, therapeutically effective amount was about 3,000 mg/day for adults and children over 12 years of age. For phenytoin, therapeutically effective amount was about 300 mg/day to about 600 mg/day for adults. For valproic acid, therapeutically effective amount was about 60 mg/kg/day for adults.
# PopPk datasets were constructed from clinical databases for Cenobamate Study 1, Cenobamate Study 2 and Cenobamate Study 3. The dosing, exposure, covariate and AED concentration data were merged by subject, date, and time; formatted for PopPK analysis and saved in ASCII format using R software (Version 3.2.2, Comprehensive R Network, cran.r-project.org). All data programs were documented and archived in a locked on-line repository in order to maintain an audit trail. A quality control (QC) check of the data management procedure was conducted according to qPharmetra standard operating procedures (SOPs).
# Results from Cenobamate Study 1, Cenobamate Study 2 and Cenobamate Study 3 were included in the analyses. Each study is described in more detail in the subsequent sections.
# This is a multicenter, double-blind, randomized, adjunctive placebo-controlled trial with an open-label extension phase to evaluate the efficacy and safety of cenobamate in subjects with treatment resistant partial onset seizures. Subjects with partial onset seizures not fully controlled despite their treatment with 1 to 3 concomitant AEDs were included in this study. The study included an 8 week baseline period to assess seizure frequency. Only subjects who experienced at least 3 seizures/month during the baseline period with no 21-day seizure-free period were randomized in a 1:1 ratio to add-on placebo or cenobamate administered in an oral formulation once daily in the morning. Subjects then entered a 12-week double-blind treatment period, consisting of a 6-week titration phase followed by a 6-week maintenance phase. In maintenance phase, the dose was 200 mg/day. Blood samples were drawn at the baseline, predose at the start of the titration phase, and on days 15, 29, 43, 57 and 85 after the first dose during the double-blinded treatment period. These samples were analyzed for lamotrigine, levetiracetam, oxcarbazepine, carbamazepine, and valproic acid.
# This is a multicenter, double-blind, randomized, placebo-controlled dose-response study, with an 8-week prospective baseline and an 18-week double-blind treatment period. Subjects must have had least 8 partial seizures including only simple partial seizures with motor component, complex partial seizures, or secondarily generalized seizures without a seizure-free interval of greater than 25 days any time during the 8-week baseline despite their treatment with 1 to 3 AEDs. Subjects must have had at least 3 of these partial seizures during each of the two consecutive 4-week periods in the baseline period to be randomized to 100, 200 or 400 mg/day cenobamate or placebo (1:1:1:1 ratio) administered as a tablet formulation once daily in the morning. Subjects first entered a 6-week titration followed by a 12-week maintenance phase. […]
# [2] = open-label multiple dose PK drug-interaction studies of cenobamate co-administered with AEDs; format: in vivo, human
# Procedure: This study was carried out to assess the effect of cenobamate on the disposition of four AEDs (divalproex sodium, phenobarbital, phenytoin and carbamazepine) and the effect of four AEDs on the disposition of cenobamate. The details are described below.
# Five open-label, multiple dose, multiple period, 1 sequence, PK drug-interaction studies were conducted examining co-administration of cenobamate and each of the above-mentioned AEDs. Specifically, five studies were conducted, as follows:
# This is an open-label, multiple-dose, 1 sequence, 3 period pharmacokinetic drug interaction study between cenobamate and divalproex in normal volunteer subjects. Sixteen subjects were enrolled. All subjects were scheduled to undergo 3 treatment periods as a 1 sequence design: • Period 1 (Days 1 to 5): Single oral daily administration of 1000 mg divalproex (Treatment A). • Period 2 (Days 6 to 19): Co-administration of single oral daily administration of 1000 mg divalproex and 150 mg cenobamate (Treatments A and B). • Period 3 (Days 20 to 25): Single oral daily administration of 150 mg cenobamate (Treatment B). (Number of Subjects Planned: 16 Enrolled: 16 Analyzed: 16) Study 2—Phenobarbital
# This is an open-label, 1-arm, 2-treatment study. Sixteen (16) healthy, adult, non-tobacco using, male and female subjects were enrolled. Screening of subjects occurred within 28 days prior to the first dose. A total of 16 subjects were enrolled in the study, and 14 subjects completed the study. The PK dataset therefore included 16 subjects for phenobarbital alone and 14 subjects for the combination treatment. There were 16 subjects included in the safety analyses.
# Treatment A subjects received 30 mg phenobarbital TID on Days 1 to 7, followed by 90 mg phenobarbital QD in the morning on Days 8 to 21. All study drugs were administered orally with approximately 240 mL of water.
# Treatment B subjects received 90 mg phenobarbital QD in the morning from Days 22 to 56 co-administered with 50 mg cenobamate QD on Days 22 to 28, 100 mg cenobamate QD on Days 29 to 35, 150 mg cenobamate QD on Days 36 to 42, and 200 mg cenobamate QD on Days 43 to 56. All study drugs were administered orally with approximately 240 mL of water. The study duration was approximately 13 weeks from screening to end-of-study procedures. There was approximately 17 weeks from screening to attempted follow-up phone call. There was no washout. […]
# Blood samples were obtained prior to and following dosing at selected times through 24 hours postdose on selected days (Days 14, 28, and 70). Plasma samples were analyzed for phenytoin and cenobamate concentrations using validated analytical methods. Appropriate PK parameters were calculated for each treatment using non-compartmental methods. […]
# [3] = combination therapy with cenobamate vs AED alone (FIG. 2)
# [4] = combination therapy with phenytoin vs cenobamate alone (FIG. 3)
smiles,measurement,setting,value
"NC(=O)N1c2ccccc2CC(=O)c2ccccc21 [Oxcarbazepine, oxcarbazepine]",Effect on AED Concentration (AUC): Increase by,[1],Increased by 10%
"NC(=O)N1c2ccccc2C=Cc2ccccc21 [Carbamazepine, carbamazepine]",Effect on AED Concentration (AUC): Reduction by,[1],Reduction by 11-34%
"Nc1nnc(-c2cccc(Cl)c2Cl)c(N)n1 [Lamotrigine, lamotrigine]",Effect on AED Concentration (AUC): Reduction by,[1],Reduction by 21-52%
CCC1(c2ccccc2)C(=O)NC(=O)NC1=O [phenobarbital],plasma AUC of the AED,[2]; [3],increased
same,plasma Cmax of the AED,[2]; [3],increased
"NC(=O)O[C@@H](Cn1ncnn1)c1ccccc1Cl [cenobamate, [(1R)-1-(2-chlorophenyl)-2-(tetrazol-2-yl)ethyl] carbamate]",plasma AUC for cenobamate,[2]; [4],decreased
same,plasma Cmax for cenobamate,[2]; [4],decreased
"CCCC(CCC)C(=O)O [Valproic acid, valproic acid]",Effect on AED Concentration (AUC): Reduction by,[1],Reduction by 5-19%
"O=C1NC(=O)C(c2ccccc2)(c2ccccc2)N1 [Phenytoin, phenytoin]",Effect on AED Concentration (AUC): Increase by,[1],Increase by 10-60%
"CC[C@@H](C(N)=O)N1CCCC1=O [Levetiracetam, levetiracetam]",Effect on AED Concentration (AUC): Reduction by,[1],Reduction by 4-13%
